Among the data in article PMC8944662 (Proceedings of the National Academy of Sciences of the …, 2022) are Kd values, retold here.

The target in the experiment is NfnL (isolated large subunit of NADH-dependent ferredoxin-NADP+ oxidoreductase I) (Pyrococcus furiosus, UniProt Q8U195). Kind of experiment: intrinsic Trp/Tyr fluorescence quenching titration, Morrison fit. Type of experiment: binding.
NfnL (isolated large subunit of NADH-dependent ferredoxin-NADP+ oxidoreductase I), sequence (Q8U195 whole entry): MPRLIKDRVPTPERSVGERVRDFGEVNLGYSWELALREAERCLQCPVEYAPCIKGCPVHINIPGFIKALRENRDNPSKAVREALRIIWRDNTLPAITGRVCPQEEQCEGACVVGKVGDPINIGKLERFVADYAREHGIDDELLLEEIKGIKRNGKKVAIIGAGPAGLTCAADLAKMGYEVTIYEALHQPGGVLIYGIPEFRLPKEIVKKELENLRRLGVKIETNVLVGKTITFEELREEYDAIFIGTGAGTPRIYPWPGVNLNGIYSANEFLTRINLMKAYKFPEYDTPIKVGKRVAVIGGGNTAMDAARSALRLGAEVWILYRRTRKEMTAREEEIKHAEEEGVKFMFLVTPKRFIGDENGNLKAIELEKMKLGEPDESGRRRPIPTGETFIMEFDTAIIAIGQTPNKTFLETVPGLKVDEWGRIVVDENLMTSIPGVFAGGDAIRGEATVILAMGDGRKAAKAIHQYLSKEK

The term Kd denotes the constant that tells how readily two partners part at equilibrium. A high value points to a looser complex. For the compound `NC(=O)C1=CN([C@@H]2O[C@H](COP(=O)(O)OP(=O)(O)OC[C@H]3O[C@@H](n4cnc5c(N)ncnc54)[C@H](OP(=O)(O)O)[C@@H]3O)[C@@H](O)[C@H]2O)C=CC1` [NADPH], the Kd came to 3 ± 0.4 µM.

Consider `NC(=O)c1ccc[n+]([C@@H]2O[C@H](COP(=O)(O)OP(=O)(O)OC[C@H]3O[C@@H](n4cnc5c(N)ncnc54)[C@H](OP(=O)(O)O)[C@@H]3O)[C@@H](O)[C@H]2O)c1` [NADP^+], for which the affinity, expressed as Kd, was 3 ± 0.4 µM.
